Data from patent publication US9353091B2 (priority 2009, dated 2016).
pEC50, pIC50: −log10 of the molar value.

How the values were obtained:
[1] = tested on: genotype 1b-Con1 subgenomic replicon cell line; assay: HCV Polymerase Replicon Assay (genotype 1b-Con1, luciferase reporter); assay type: cell-based; details: Hepatitis C virus, 72 h, 1b-Con1 replicon, three days
[2] = biological target: T1, HCV polymerase 1B (Δ21 NS5B) (Hepatitis C virus genotype 1b, UniProt P26663); assay: HCV Polymerase Inhibition Assay (1b); assay type: biochemical
T1 construct: 20 to 50 nM Δ21 NS5B
T1 sequence (P26663 2420-2989, stated change not applied): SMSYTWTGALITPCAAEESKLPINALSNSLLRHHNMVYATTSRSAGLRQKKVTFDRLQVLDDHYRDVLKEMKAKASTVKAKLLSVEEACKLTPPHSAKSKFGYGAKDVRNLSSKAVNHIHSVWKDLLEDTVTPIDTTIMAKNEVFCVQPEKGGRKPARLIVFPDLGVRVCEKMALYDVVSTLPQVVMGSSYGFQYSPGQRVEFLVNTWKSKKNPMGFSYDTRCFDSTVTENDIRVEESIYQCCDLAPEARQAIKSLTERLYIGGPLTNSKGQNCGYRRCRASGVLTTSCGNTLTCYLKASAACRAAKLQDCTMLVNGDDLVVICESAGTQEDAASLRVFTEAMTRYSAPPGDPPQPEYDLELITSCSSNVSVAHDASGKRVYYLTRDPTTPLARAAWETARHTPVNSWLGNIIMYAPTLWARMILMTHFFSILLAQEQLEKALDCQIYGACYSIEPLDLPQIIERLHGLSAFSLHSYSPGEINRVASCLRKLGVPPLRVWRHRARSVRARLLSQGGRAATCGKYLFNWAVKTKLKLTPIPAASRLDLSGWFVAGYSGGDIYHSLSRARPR
Protocol: (§1) Reaction volume was 50 μL. The reaction was terminated by the addition of 1 volume of 4 mM spermine in 10 mM Tris-Cl pH 8.0, 1 mM EDTA. After incubation for at least 15 minutes at room temperature, the precipitated RNA was captured by filtering through a GF/B filter (Millipore) in a 96 well format. The filter plate was washed three times with 200 μL, each of 2 mM spermine, 10 mM Tris-Cl pH 8.0, 1 mM EDTA, and 2 times with ethanol. After air-drying, 30 μL, of Microscint 20 scintillation cocktail (Packard) was added to each well, and the retained cpm were determined by scintillation counting. […] Retained cpm were plotted vs. inhibitor concentration and fit to equation 1 using non-linear regression (ref. 1) to obtain the IC50 values: Retained cpm=A[sqrt{(IC50+It−Et)^2+4*IC50*Et}−(IC50+It−Et)]
(§2) Ref. Morrison, J. F. and S. R. Stone. 1985. Approaches to the study and analysis of the inhibition of enzymes by slow- and tight-binding inhibitors. Comments Mol. Cell. Biophys. 2: 347-368.
(§3) The sequence of the template RNA used was: 5′-[…] […] […] […] […] […] […] […] […] […] […] […] […] […] […] […] […]-3′ (SEQ ID NO: 1)

[3] = biological target: T2, HCV polymerase 1A (Δ21 NS5B) (Hepatitis C virus genotype 1a, UniProt P27958); assay: HCV Polymerase Inhibition Assay (1a); assay type: biochemical
T2 construct: 20 to 50 nM Δ21 NS5B
T2 sequence (P27958 2421-2990, stated change not applied): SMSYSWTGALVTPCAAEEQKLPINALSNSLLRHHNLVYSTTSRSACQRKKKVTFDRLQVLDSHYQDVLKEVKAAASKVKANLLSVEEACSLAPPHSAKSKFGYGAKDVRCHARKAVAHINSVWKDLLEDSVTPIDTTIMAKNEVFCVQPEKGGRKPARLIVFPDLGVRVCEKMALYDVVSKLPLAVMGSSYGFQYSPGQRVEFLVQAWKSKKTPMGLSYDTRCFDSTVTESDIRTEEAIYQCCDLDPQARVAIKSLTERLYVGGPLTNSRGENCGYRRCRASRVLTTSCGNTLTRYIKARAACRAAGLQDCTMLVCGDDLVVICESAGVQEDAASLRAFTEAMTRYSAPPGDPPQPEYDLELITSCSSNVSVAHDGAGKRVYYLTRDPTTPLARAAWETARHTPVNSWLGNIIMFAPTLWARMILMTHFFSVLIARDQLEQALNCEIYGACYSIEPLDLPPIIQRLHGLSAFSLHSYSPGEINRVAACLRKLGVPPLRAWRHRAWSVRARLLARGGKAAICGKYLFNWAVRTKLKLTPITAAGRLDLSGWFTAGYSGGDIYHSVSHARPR
Protocol: as §1, §2, §3

[4] = tested on: genotype 1a-H77 subgenomic replicon cell line; assay: HCV Polymerase Replicon Assay (genotype 1a-H77, luciferase reporter); assay type: cell-based; details: Hepatitis C virus, 72 h, 1a-H77 replicon, three days

Row | SMILES | pEC50 [1] | pIC50 [2] | pIC50 [3] | pEC50 [4]
1 | CC(C)(C)c1cc(-c2c[nH]c(=O)[nH]c2=O)cc(-c2ccc3cc(NS(C)(=O)=O)ccc3c2)c1N [compound 33, N-(6-(2-amino-3-tert-butyl-5-(2,4-dioxo-1,2,3,4-tetrahydropyrimidin-5-yl)phenyl)naphthalen-2-yl)methanesulfonamide] | 7.00 to 8.00 | 7.00 to 8.00 | > 8.00 | 6.00 to 7.00
2 | CC(C)(C)c1cc(-c2c[nH]c(=O)[nH]c2=O)cc(-c2ccc3cc(NS(C)(=O)=O)ccc3c2)c1I [compound 34, N-(6-(3-tert-butyl-5-(2,4-dioxo-1,2,3,4-tetrahydropyrimidin-5-yl)-2-iodophenyl)naphthalen-2-yl)methanesulfonamide] | 7.00 to 8.00 | 7.00 to 8.00 | > 8.00 | 6.00 to 7.00
3 | C=Cc1c(-c2ccc3cc(NS(C)(=O)=O)ccc3c2)cc(-c2c[nH]c(=O)[nH]c2=O)cc1C(C)(C)C [compound 35, N-(6-(3-tert-butyl-5-(2,4-dioxo-1,2,3,4-tetrahydropyrimidin-5-yl)-2-vinylphenyl)naphthalen-2-yl)methanesulfonamide] | ≥ 8.00 | > 8.00 | > 8.00 | 7.00 to 8.00
4 | CCc1c(-c2ccc3cc(NS(C)(=O)=O)ccc3c2)cc(-c2c[nH]c(=O)[nH]c2=O)cc1C(C)(C)C [compound 36, N-(6-(3-tert-butyl-5-(2,4-dioxo-1,2,3,4-tetrahydropyrimidin-5-yl)-2-ethylphenyl)naphthalen-2-yl)methanesulfonamide] | 6.00 to 7.00 | 7.00 to 8.00 | 7.00 to 8.00 | 6.00 to 7.00
5 | COc1c(-c2ccc3cc(NS(C)(=O)=O)ccc3c2)cc(-c2c[nH]c(=O)[nH]c2=O)cc1C(F)(F)C(F)(F)F [compound 37, N-(6-(5-(2,4-dioxo-1,2,3,4-tetrahydropyrimidin-5-yl)-2-methoxy-3-(perfluoroethyl)phenyl)naphthalen-2-yl)methanesulfonamide] | 7.00 to 8.00 | 7.00 to 8.00 | > 8.00 | 6.00 to 7.00
6 | COc1c(-c2ccoc2)cc(-c2c[nH]c(=O)[nH]c2=O)cc1-c1ccc2cc(NS(C)(=O)=O)ccc2c1 [compound 38, N-(6-(5-(2,4-dioxo-1,2,3,4-tetrahydropyrimidin-5-yl)-3-(furan-3-yl)-2-methoxyphenyl)naphthalen-2-yl)methanesulfonamide] | 7.00 to 8.00 | 7.00 to 8.00 | > 8.00 | 6.00 to 7.00
7 | COc1c(-c2ccc3cc(NS(C)(=O)=O)ccc3c2)cc(-c2c[nH]c(=O)[nH]c2=O)cc1-c1cccs1 [compound 39, N-(6-(5-(2,4-dioxo-1,2,3,4-tetrahydropyrimidin-5-yl)-2-methoxy-3-(thiophen-2-yl)phenyl)naphthalen-2-yl)methanesulfonamide] | ≥ 8.00 | > 8.00 | > 8.00 | 7.00 to 8.00
8 | COc1c(-c2ccc3cc(NS(C)(=O)=O)ccc3c2)cc(-c2c[nH]c(=O)[nH]c2=O)cc1-c1ccco1 [compound 40, N-(6-(5-(2,4-dioxo-1,2,3,4-tetrahydropyrimidin-5-yl)-3-(furan-2-yl)-2-methoxyphenyl)naphthalen-2-yl)methanesulfonamide] | 7.00 to 8.00 | > 8.00 | > 8.00 | 6.00 to 7.00
9 | COc1c(-c2ccc3cc(NS(C)(=O)=O)ccc3c2)cc(-c2c[nH]c(=O)[nH]c2=O)cc1-c1cnn(C)c1 [compound 41, N-(6-(5-(2,4-dioxo-1,2,3,4-tetrahydropyrimidin-5-yl)-2-methoxy-3-(1-methyl-1H-pyrazol-4-yl)phenyl)naphthalen-2-yl)methanesulfonamide] | < 6.00 | 6.00 to 7.00 | 6.00 to 7.00 | < 6.00
10 | COc1c(-c2ccc3cc(NS(C)(=O)=O)ccc3c2)cc(-c2c[nH]c(=O)[nH]c2=O)cc1-c1ccc(C)o1 [compound 42, N-(6-(5-(2,4-dioxo-1,2,3,4-tetrahydropyrimidin-5-yl)-2-methoxy-3-(5-methylfuran-2-yl)phenyl)naphthalen-2-yl)methanesulfonamide] | ≥ 8.00 | 7.00 to 8.00 | > 8.00 | 7.00 to 8.00
11 | COc1c(-c2ccsc2)cc(-c2c[nH]c(=O)[nH]c2=O)cc1-c1ccc2cc(NS(C)(=O)=O)ccc2c1 [compound 43, N-(6-(5-(2,4-dioxo-1,2,3,4-tetrahydropyrimidin-5-yl)-2-methoxy-3-(thiophen-3-yl)phenyl)naphthalen-2-yl)methanesulfonamide] | 7.00 to 8.00 | > 8.00 | > 8.00 | 6.00 to 7.00
12 | COc1c(-c2ccc3c(c2)CC=C3CNS(C)(=O)=O)cc(-c2c[nH]c(=O)[nH]c2=O)cc1-c1ccc(C)o1 [compound 44, N-((6-(5-(2,4-dioxo-1,2,3,4-tetrahydropyrimidin-5-yl)-2-methoxy-3-(5-methylfuran-2-yl)phenyl)-1H-inden-3-yl)methyl)methanesulfonamide] | 7.00 to 8.00 | 7.00 to 8.00 | 7.00 to 8.00 | 6.00 to 7.00
13 | COc1c(-c2ccc(/C=N/NS(C)(=O)=O)cc2)cc(N2CCCS2(=O)=O)cc1C(C)(C)C [compound 45, (E)-N′-((3′-tert-butyl-5′-(2-(1,1-dioxidoisothiazolidin-2-yl))-2′ methoxybiphenyl-4-yl)methylene)methanesulfonylhydrazide] | 6.00 to 7.00 | 6.00 to 7.00 | 6.00 to 7.00 | < 6.00
14 | COc1c(-c2ccc3cc(NS(C)(=O)=O)ccc3c2)cc(N2CCCS2(=O)=O)cc1C(C)(C)C [compound 46, N-(6-(3-tert-butyl-5-(2-(1,1-dioxidoisothiazolidin-2-yl))-2-methoxyphenyl)naphthalene-2-yl)methanesulfonamide] | 7.00 to 8.00 | 7.00 to 8.00 | 7.00 to 8.00 | 6.00 to 7.00
15 | COc1c(-c2ccc3cc(NS(C)(=O)=O)ccc3c2)cc(NC(C)=O)cc1C(C)(C)C [compound 47, N-(3-tert-butyl-4-methoxy-5-(6-(methylsulfonamido)naphthalen-2-yl)phenyl)acetamide] | 6.00 to 7.00 | < 6.00 | 6.00 to 7.00 | < 6.00
16 | COc1c(Br)cc(-c2c[nH]c(=O)[nH]c2=O)cc1C(F)(F)F [compound 48, 5-(3-bromo-4-methoxy-5-(trifluoromethyl)phenyl)pyrimidine-2,4(1H,3H)-dione] | < 6.00 | < 6.00 | < 6.00 | < 6.00
17 | COc1c(-c2ccc3cc(NS(C)(=O)=O)ccc3c2)cc(-c2c[nH]c(=O)[nH]c2=O)cc1C(F)(F)F [compound 49, N-(6-(5-(2,4-dioxo-1,2,3,4-tetrahydropyrimidin-5-yl)-2-methoxy-3-(trifluoromethyl)phenyl)naphthalen-2-yl)methanesulfonamide] | ≥ 8.00 | 7.00 to 8.00 | > 8.00 | 7.00 to 8.00
18 | COc1c(/C=C/c2ccc(NS(C)(=O)=O)cc2)cc(-c2c[nH]c(=O)[nH]c2=O)cc1C(F)(F)F [compound 50, (E)-N-(4-(5-(2,4-dioxo-1,2,3,4-tetrahydropyrimidin-5-yl)-2-methoxy-3-(trifluoromethyl)styryl)phenyl)methanesulfonamide] | 7.00 to 8.00 | 7.00 to 8.00 | 7.00 to 8.00 | 6.00 to 7.00
19 | COc1c(-c2ccc3c(CNS(C)(=O)=O)csc3c2)cc(-c2c[nH]c(=O)[nH]c2=O)cc1C(F)(F)F [compound 51, N-((6-(5-(2,4-dioxo-1,2,3,4-tetrahydropyrimidin-5-yl)-2-methoxy-3-(trifluoromethyl)phenyl)benzo[b]thiophen-3-yl)methyl)methanesulfonamide] | 7.00 to 8.00 | 7.00 to 8.00 | > 8.00 | 6.00 to 7.00
20 | COc1c(-c2ccc3c(c2)CC=C3CNS(C)(=O)=O)cc(-c2cn(S(C)(=O)=O)c(=O)[nH]c2=O)cc1C(F)(F)F [compound 52, N-((6-(2-methoxy-5-(1-(methylsulfonyl)-2,4-dioxo-1,2,3,4-tetrahydropyrimidin-5-yl)-3-(trifluoromethyl)phenyl)-1H-inden-3-yl)methyl)methanesulfonamide] | ≥ 8.00 | 7.00 to 8.00 | 7.00 to 8.00 | 6.00 to 7.00
